In patent publication US20060084657A1, “Piperazine derivative” (priority 2001, published 2006):

Target: T1, human MC4 receptor (Homo sapiens, UniProt P32245)
T1 construct: purchased BioLinks K.K; host or cells: HEK-293 cell membranes
Test: Test for binding to MC4 receptor
Conditions: HEK-293 cell membranes expressing the human MC4 receptor; [125I]Nle4-D-Phe7-α-MSH 0.2 nM; 25° C. for 120 minutes
Method: The test for binding to MC4 receptor was carried out according to the method as described in Pharmacology & Toxicology, 79, 161-165, 1996. HEK-293 cell membranes expressing the human MC4 receptor were purchased from BioLinks K.K. The cell membranes were homogenized in a 50 mM Tris-hydrochloric buffer (pH 7.4) containing 2 mM ethylenediaminetetraacetic acid, 10 mM calcium chloride and 100 μM phenymethylsulfonyl fluoride. The homogenate was centrifuged at 48,000×g at 4° C. for 20 minutes. The precipitate obtained by centrifugation was re-homogenized in the same buffer, and then the homogenate was centrifuged at 48,000×g at 4° C. for 20 minutes. This manipulation was repeated twice. The precipitates were suspended in a 50 mM Tris-hydrochloric acid buffer (pH 7.4) containing 2 mM ethylenediaminetetraacetic acid, 10 mM calcium chloride, 100 μM phenymethylsulfonyl fluoride and 0.1% bovine serum albumin so as to provide a protein concentration of 100 μg/ml. The suspension was used for the binding test as a crude membrane specimen. The crude membrane specimen (0.25 ml, 25 μg protein) was allowed to react with [^125I]Nle^4-D-Phe^7-α-MSH (final concentration of 0.2 nM) at 25° C. for 120 minutes. […] Radioactivity on the filter papers was measured using a γ-counter. […] IC50 value was calculated from inhibition curve at concentrations of from 10^−8 to 10^−5.

T1 sequence (P32245 whole entry): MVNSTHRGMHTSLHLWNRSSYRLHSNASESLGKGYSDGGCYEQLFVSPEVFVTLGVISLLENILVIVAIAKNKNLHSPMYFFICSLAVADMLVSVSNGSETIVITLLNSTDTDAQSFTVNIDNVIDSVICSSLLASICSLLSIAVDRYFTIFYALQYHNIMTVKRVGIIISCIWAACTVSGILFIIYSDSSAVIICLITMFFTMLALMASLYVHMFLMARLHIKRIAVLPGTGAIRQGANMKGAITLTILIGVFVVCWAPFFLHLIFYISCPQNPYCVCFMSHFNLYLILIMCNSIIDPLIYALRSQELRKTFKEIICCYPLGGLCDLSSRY

IC50: 162 nM
SMILES: CC(C)N1CCN(C(CN2CCN(CCCc3sc(-c4ccccc4)nc3-c3ccccc3)CC2)c2ccc(F)cc2)CC1 (stereo not shown) [Compound 86]
